Source: article PMC6508961, “A high-throughput screen of pharmacologically active compounds for inhibitors of UHRF1 reveals epigenetic activity of anthracycline derivative chemotherapeutic drugs” (Oncotarget, 2019)
Where two headings read alike, the source gives them in different places.

Assays:
[1] = biological target: T1, UHRF1_SRA binding to hemimethylated DNA (Homo sapiens, UniProt Q96T88); test: LOPAC primary screen with the TR-FRET assay; settings: 20 μM; hit = Z-score < −4.08, Bonferroni adjusted p-value < 0.05
T1 construct: made in house; host or cells: E. coli BL-21 Gold
T1 sequence (Q96T88 419-582 limits assumed): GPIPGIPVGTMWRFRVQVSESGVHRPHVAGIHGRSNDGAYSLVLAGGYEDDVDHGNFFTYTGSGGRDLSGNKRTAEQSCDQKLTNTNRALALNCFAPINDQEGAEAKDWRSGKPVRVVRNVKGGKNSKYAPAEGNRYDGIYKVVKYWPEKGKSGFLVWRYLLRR
Protocol: The above TR-FRET assay was employed to screen the Library of Pharmacologically Active Compounds (LOPAC) (Sigma-Aldrich) using optimized conditions. 200 uM stock solutions of compounds dissolved in dimethyl sulfoxide (DMSO) were added to a final concentration of 20 μM across four 384-well plates containing 20 μL of TR-FRET buffer with 125 nM UHRF1_SRA protein, 100 nM double stranded FAM-labeled hemimethylated oligos, and 5 nM terbium labeled anti-HIS antibody. Controls on each plate include: 1) a DMSO-only vehicle control, 2) 5μM of unlabeled, methylated oligonucleotide as a positive inhibition control, 3) unmethylated, FAM-labeled oligonucleotide as a negative control, and 4) no UHRF1_SRA protein negative control. Each plate was incubated at 4° C for one hour and read using a Safire^2 (Tecan Group, Männedorf, Switzerland) with excitation at 332 nm and emissions read at 485 nm and 515 nm. A Z score of the TR-FRET signal (ratio of 515 nm signal to the 485 nm signal) was calculated for each compound using the following formula: […]
where x is the TR-FRET signal for each compound, x¯ is the median TR-FRET signal of all compounds on the plate, and σ is the standard deviation of all compound TR-FRET signals across the plate. Hits were defined as those compounds with Z-score < −4.08 corresponding to a Bonferroni adjusted p-value of less than 0.05.

[2] = biological target: T1, UHRF1_SRA binding to hemimethylated DNA; test: TR-FRET assay, dose-response inhibition of UHRF1_SRA binding to FAM-labeled hemimethylated DNA; settings: for Dose-response validation of screen hits (result in words): dilution series 50 μM to 0.64 nM, quadruplicate
Protocol: TR-FRET assays were performed in an optimized TR-FRET buffer (4% glycerol, 1 mM MgCl2, 0.5 mM EDTA, 0.5 mM DTT, 125 mM NaCl, 10 mM Tris HCl, and 0.2% Tween-20) in non-binding, flat-bottom 384-well plates (Corning). UHRF1_SRA protein was added to a final concentration of 125 nM and terbium-labeled antibody was added at 5 nM (Life Technologies) in a final reaction volume of 20 μL. For initial binding experiments examining the affinity of UHRF1_SRA to DNA, FAM-labeled hemimethylated or unmethylated double stranded oligonucleotides were added in a dilution series, and the reaction mixture was incubated at 4°C with shaking for 1 hour. TR-FRET measurements were made on a SpectraMax M5 (Molecular Devices, Sunnyvale, CA, USA), using an excitation wavelength of 332 nm and emissions read at 485 nm and 515 nm with a 50 μsec delay and 400 μsec integration. The ratio of the 515 nm emission (arising from FRET) to the 485 nm emission provides a normalized TR-FRET signal that represents the extent of binding. For inhibitor curves, FAM-labeled hemimethylated oligonucleotide was added to a final concentration of 100 nM, and unlabeled oligonucleotide was added in a dilution series. A Z’ factor was calculated for 32 replicates of UHRF1_SRA protein binding FAM-labeled hemimethylated DNA with or without the addition of an excess (5 μM) of unlabeled hemimethylated inhibitor (“cold” perfect competitive inhibitor positive control for inhibition):
Each hit compound was tested using the TR-FRET assay above in quadruplicate in a dilution series (50 μM to 0.64 nM). Curve fitting was performed using the open source software R version 2.15.2 with the ggplot2 package.

[3] = tested on: DU-145 cells; test: Clonogenic survival assay; settings: 10 days; for Clonogenic survival, drug alone: decitabine 50 nM, mitoxantrone 2.5 nM, doxorubicin 5 nM; for Clonogenic survival, in combination with decitabine: mitoxantrone 2.5 nM or doxorubicin 5 nM with 50 nM decitabine
[4] = tested on: DU-145 cells; test: Growth curve assay (IncuCyte); format: cell-based; settings: mitoxantrone 1.25 nM or doxorubicin 5 nM or 10 nM with 50 nM decitabine
Protocol: The next day, cells were treated with a single dose of DMSO (vehicle control), decitabine alone (50 nM), mitoxantrone alone (1.25 nM), doxorubicin alone (5 nM or 10 nM), or decitabine in combination with mitoxantrone (1.25 nM) or doxorubicin (5 nM or 10 nM). Cell growth was measured using IncuCyte™ technology (Essen Bioscience, Ann Arbor, MI, USA) by imaging 16 fields per well at 6 hour intervals. The cell surface area and percent confluence were calculated using IncuCyte software, and growth curves were constructed in R using the ggplot2 package.

[5] = tested on: PC-3 prostate cancer cell line; test: Cellular growth/proliferation assay; format: cell-based; settings: mitoxantrone 2.5 nM or doxorubicin 5 nM with decitabine 50 nM
Protocol: (§1) www.oncotarget.com Oncotarget, Supplementary Materials […]
(§2) derivative chemotherapeutic drugs
(§3) Supplementary Figure 1: Cellular growth/proliferation assays of C42B, PC-3 and LNCaP prostate cancer cell lines treated with mitoxantrone (2.5 nM) or doxorubicin (5 nM) in combination with decitabine (50 nM) or vehicle control (DMSO), decitabine alone, or DMSO alone.
(§4) (1 picture or pasted object on this page, not shown here)

[6] = tested on: LNCaP prostate cancer cell line; test: Cellular growth/proliferation assay; format: cell-based; settings: mitoxantrone 2.5 nM or doxorubicin 5 nM with decitabine 50 nM
Protocol: as §1, §2, §3, §4

[7] = tested on: C42B prostate cancer cell line; test: Cellular growth/proliferation assay; format: cell-based; settings: mitoxantrone 2.5 nM or doxorubicin 5 nM with decitabine 50 nM
Protocol: as §1, §2, §3, §4

[8] = 125 nM UHRF1_SRA, 100 nM FAM-labeled hemimethylated oligo, read-out: IC50 of inhibition of UHRF1_SRA binding to labeled hemimethylated DNA

SMILES	Inhibition of UHRF1_SRA binding to hemimethylated DNA in pilot screen [1]	Dose-response validation of screen hits (result in words) [2]	IC50 [2, 8] [nM]	further results
NC(Cc1cc(O)c(O)cc1O)C(=O)O (racemic) [6-OH-DL-DOPA]	significantly inhibited	failed to show any appreciable inhibition		
S=C=Nc1ccc2oc(C3=NCCN3)cc2c1 [BU99006]	significantly inhibited	failed to show any appreciable inhibition		
COc1cccc2c1C(=O)c1c(O)c3c(c(O)c1C2=O)C[C@@](O)(C(C)=O)C[C@@H]3O[C@H]1C[C@H](N)[C@H](O)[C@H](C)O1 [Daunorubicin, daunorubicin]			313	
O=C(Nc1cccc(C(=O)Nc2ccc(S(=O)(=O)O)c3cc(S(=O)(=O)O)cc(S(=O)(=O)O)c23)c1)Nc1cccc(C(=O)Nc2ccc(S(=O)(=O)O)c3cc(S(=O)(=O)O)cc(S(=O)(=O)O)c23)c1 [NF023]	significantly inhibited	inhibited binding with a sigmoidal dose response	840	
O=C(Nc1cc(C(=O)Nc2ccc(S(=O)(=O)O)cc2S(=O)(=O)O)cc(C(=O)Nc2ccc(S(=O)(=O)O)cc2S(=O)(=O)O)c1)Nc1cc(C(=O)Nc2ccc(S(=O)(=O)O)cc2S(=O)(=O)O)cc(C(=O)Nc2ccc(S(=O)(=O)O)cc2S(=O)(=O)O)c1 [NF449]	significantly inhibited	inhibited binding with a sigmoidal dose response	393	
N=C1Sc2ccccc2C2=NCCCN12 [PD404,182]	significantly inhibited	failed to show any appreciable inhibition		
Cc1nc(N=Nc2cc(S(=O)(=O)O)c3cc([N+](=O)[O-])cc(S(=O)(=O)O)c3c2)c(COP(=O)(O)O)c(C=O)c1O [PPNDS]	significantly inhibited	inhibited binding with a sigmoidal dose response	770	
NCCNc1ccc(NCCN)c2c1C(=O)c1ccncc1C2=O [Pixantrone, pixantrone]			557	
Nc1c(S(=O)(=O)O)cc(Nc2ccc(Nc3nc(Cl)nc(Nc4cccc(S(=O)(=O)O)c4)n3)c(S(=O)(=O)O)c2)c2c1C(=O)c1ccccc1C2=O [Reactive Blue 2]	significantly inhibited			
Cc1ccc(C(=O)Nc2ccc(S(=O)(=O)O)c3cc(S(=O)(=O)O)cc(S(=O)(=O)O)c23)cc1NC(=O)c1cccc(NC(=O)Nc2cccc(C(=O)Nc3cc(C(=O)Nc4ccc(S(=O)(=O)O)c5cc(S(=O)(=O)O)cc(S(=O)(=O)O)c45)ccc3C)c2)c1 [Suramin]	significantly inhibited	inhibited binding with a sigmoidal dose response	2250	
O=C(O)C1=CC(=C(c2ccc(O)c(C(=O)O)c2)c2ccc(O)c(C(=O)O)c2)C=CC1=O [aurintricarboxylic acid]	significantly inhibited	inhibited binding with a sigmoidal dose response	21	
Nc1ncn([C@H]2C[C@H](O)[C@@H](CO)O2)c(=O)n1 [decitabine]				Clonogenic survival, drug alone [3]: some reduction in clonogenic survival
CN(N=O)c1cc(O)ccc1O [dephostatin]	significantly inhibited	failed to show any appreciable inhibition		
COc1cccc2c1C(=O)c1c(O)c3c(c(O)c1C2=O)C[C@@](O)(C(=O)CO)C[C@@H]3O[C@H]1C[C@H](N)[C@H](O)[C@H](C)O1 [doxorubicin]				Clonogenic survival, drug alone [3]: some reduction in clonogenic survival; Clonogenic survival, in combination with decitabine [3]: significantly enhanced reduction in clonogenic survival; Growth curve analysis, in combination with decitabine [4]: synergy; Growth/proliferation, combination with decitabine [5]: showed enhanced; Growth/proliferation, combination with decitabine [6]: did not show enhanced growth inhibition; Growth/proliferation, combination with decitabine [7]: showed enhanced; IC50 [2]: 131 nM
CC(=O)[C@]1(O)Cc2c(O)c3c(c(O)c2[C@@H](O[C@H]2C[C@H](N)[C@H](O)[C@H](C)O2)C1)C(=O)c1ccccc1C3=O [idarubicin]	significantly inhibited	inhibited binding with a sigmoidal dose response	593	
CN(N=O)c1ccc(O)c(O)c1 [methyl-3,4-dephostatin]	significantly inhibited	failed to show any appreciable inhibition		
O=C1c2c(O)ccc(O)c2C(=O)c2c(NCCNCCO)ccc(NCCNCCO)c21 [mitoxantrone]	significantly inhibited	inhibited binding with a sigmoidal dose response	134	Clonogenic survival, drug alone [3]: some reduction in clonogenic survival; Clonogenic survival, in combination with decitabine [3]: significantly enhanced reduction in clonogenic survival; Growth curve analysis, in combination with decitabine [4]: synergy; Growth/proliferation, combination with decitabine [5]: enhanced inhibition of; Growth/proliferation, combination with decitabine [6]: enhanced inhibition of; Growth/proliferation, combination with decitabine [7]: enhanced inhibition of
N#CC(C#N)=C(N)/C(C#N)=C/c1cc(O)c(O)c(O)c1 [tyrphostin 51]	significantly inhibited	failed to show any appreciable inhibition		
